Measurements as given in the NIST ThermoML archive (doi:10.1016/j.tca.2010.09.010).

Settings: Crystal, TG

[Cd+2].[I-].[I-] [cadmium iodide (CdI2)]
Settings	vapor or sublimation pressure [kPa]
740 K	0.2888
745 K	0.3252
750 K	0.3668
755 K	0.4124
760 K	0.4631
765 K	0.5198
770 K	0.5826
